Where two headings read alike, the source gives them in different places.
Columns and labels:
KRAS G12D/RAF1 = target: T1, KRAS G12D/RAF1 (Homo sapiens, UniProt P01116, G12D); test: Protein-protein interaction (PPI) HTRF assay KRAS G12D/RAF1; format: binding
T1 construct: His6-MBP (N, cleaved yes); made in house; host or cells: E. coli
Summary of the method: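 HTRF pairing of His-tagged RAF1 (52-131) plus Tb-cryptate donor with GppNHp-exchanged biotin-RAS (KRAS 1-169 wt/G12D/G12V, NRAS wt) plus streptavidin-d2 acceptor; compound sits 30 min with RAS first, then 1 h RT with RAF1. IC50 derived from 665/615 ratio, untagged RAF1 defining full inhibition.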

[1] = test system: AGS cells (KRAS G12D), phospho-ERK; test: pERK In Cell Western (ICW) assay (Method B), AGS cells; format: cell-based; conditions: Table 4, pERK, 3 hours, read-out: ICW-AGS
Description: pERK ICW is a high throughput screening assay to evaluate the cellular potency of mutant KRAS small molecule inhibitors. KRAS mutant cell lines AGS and GP2D (KRAS^G12D) were purchased from ATCC and maintained respectively in RPMI and DMEM medium supplemented with 10% fetal bovine serum and Penicillin/Streptomycin.
Cells grown in exponential phase were trypsinized, resuspended in fresh media, and viable cells were counted using a cell counter with Trypan Blue (BioRad TC20). Cells were seeded into 384-well plate (Greiner 781091) at density of 5,000 cells/well for AGS and 10,000 cells/well for GP2D and allowed to grow overnight in a 37° C. CO2 incubator. The next day, compounds were dispensed into wells with a ½ log, 10-point serial dilution and top concentration of […] using Tecan D300e dispenser and incubated for 3 hours in a 37° C. CO2 incubator. Cells were then fixed with paraformaldehyde (Electron Microscopy Sciences, 15710, 4% final concentration) for 30 min, permeabilized with wash buffer (1×PBS+0.1% Triton X-100) for 30 min and blocked with Odyssey blocking buffer (Li—COR 927-70001) for 1 hour, all at room temperature (RT). Phospho-ERK antibody (CST 4370L) was diluted 1:500 in Odyssey blocking+0.2% Tween 20 and incubated with cells overnight at 4° C. The next day, plates were washed 5× with wash buffer, incubated with IRDye 800 CW, Goat anti-Rabbit secondary antibody (Li—COR 926-32211, 1:500) and DRAQ5 (CST 4084L, 1:5,000) diluted in Odyssey blocking+0.2% Tween 20 for 1 hour, washed 5×, and imaged on an Odyssey CLx imaging system.
For data analysis, signal intensities from 800 (phosphor-ERK) and 700 (DRAQ5) channels were extracted, and phospho-ERK signals were normalized to DRAQ5 signals for each well and percent of DMSO control values were computed. Data were then imported into Graphpad Prism to compute half-maximal inhibitory concentrations (IC50) using a 4-parameter variable slope model. Z-factor for each plate was computed from signals derived from wells treated with either DMSO or […] of Trametinib. AGS pERK ICW (Method B) IC50 (uM) values of selected compounds are depicted in Table 2 with compounds having a value 0.001 uM to 0.01 uM as ++++; >0.01 uM to 0.1 uM as +++; >0.1 uM to 1 uM as ++; 1 uM to 10 uM as + and >10 uM as NA.

T1 sequence (P01116 with tags, fused parts or gaps isoform P01116-2 G12D): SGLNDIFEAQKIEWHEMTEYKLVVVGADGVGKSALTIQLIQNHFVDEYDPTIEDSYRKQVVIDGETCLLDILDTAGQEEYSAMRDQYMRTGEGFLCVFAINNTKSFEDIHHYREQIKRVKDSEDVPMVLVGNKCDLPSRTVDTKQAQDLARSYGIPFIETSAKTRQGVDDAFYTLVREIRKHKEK

SMILES | IC50 (KRAS G12D/RAF1; Table 4) [µM] | IC50 ([1]; Homo sapiens) [nM] | IC50 (KRAS G12D/RAF1; Table 4, listed as 74.1) [µM] | IC50 [1] [nM]
CC(=O)c1nn2c(c1Cl)CN(c1nc(OC[C@@]34CCCN3C[C@H](F)C4)nc(N3CC4(CCc5sc(N)c(C#N)c54)C3)c1C#N)CCC2 [Compound 13, 1′-[6-(2-acetyl-3-chloro-4,6,7,8-tetrahydropyrazolo[1,5-a][1,4]diazepin-5-yl)-5-cyano-2-[[(2R,8S)-2-fluoro-1,2,3,5,6,7-hexahydropyrrolizin-8-yl]methoxy]pyrimidin-4-yl]-2-amino-spiro[5,6-dihydrocyclopenta[b]thiophene-4,3′-azetidine]-3-carbonitrile] | 1 to 10 | 10 to 100 |  | 
Cc1noc(-c2nn3c(c2Cl)CN(c2nc(OC[C@@]45CCCN4C[C@H](F)C5)nc(N4CC5(CCc6sc(N)c(C#N)c65)C4)c2C#N)CCC3)n1 [Compound 17, 2-amino-1′-[6-[3-chloro-2-(3-methyl-1,2,4-oxadiazol-5-yl)-4,6,7,8-tetrahydropyrazolo[1,5-a][1,4]diazepin-5-yl]-5-cyano-2-[[(2R,8S)-2-fluoro-1,2,3,5,6,7-hexahydropyrrolizin-8-yl]methoxy]pyrimidin-4-yl]spiro[5,6-dihydrocyclopenta[b]thiophene-4,3′-azetidine]-3-carbonitrile] | 1 to 10 | 100 to 1000 |  | 
N#Cc1c(N2CCCC(C#N)CC2)nc(OC[C@@]23CCCN2C[C@H](F)C3)nc1N1CC2(CCc3sc(N)c(C#N)c32)C1 (stereo partly drawn) [Compound 33, 2-amino-1′-[5-cyano-6-(4-cyanoazepan-1-yl)-2-[[(2R,8S)-2-fluoro-1,2,3,5,6,7-hexahydropyrrolizin-8-yl]methoxy]pyrimidin-4-yl]spiro[5,6-dihydrocyclopenta[b]thiophene-4,3′-azetidine]-3-carbonitrile] | 1 to 10 | 1000 to 10000 |  | 
CN(C)CC1(COc2nc(N3CC4CCC(C3)N4)c(C#N)c(N3CC4(CCc5sc(N)c(C#N)c54)C3)n2)CC1(F)F (centres unmarked) [Compound 74A, 2-amino-1′-[5-cyano-6-(3,8-diazabicyclo[3.2.1]octan-3-yl)-2-[[(1*)-1-[(dimethylamino)methyl]-2,2-difluoro-cyclopropyl]methoxy]pyrimidin-4-yl]spiro[5,6-dihydrocyclopenta[b]thiophene-4,3′-azetidine]-3-carbonitrile] |  |  | < 0.1 | 1 to 10
Cn1c(-c2cc3n(n2)CCCN(c2nc(OC[C@@]45CCCN4C[C@H](F)C5)nc(N4CC5(CCc6sc(N)c(C#N)c65)C4)c2C#N)C3)nc2ccccc21 [Compound 29, 2-amino-1′-[5-cyano-6-[2-(1-methylbenzimidazol-2-yl)-4,6,7,8-tetrahydropyrazolo[1,5-a][1,4]diazepin-5-yl]-2-[[(2R,8S)-2-fluoro-1,2,3,5,6,7-hexahydropyrrolizin-8-yl]methoxy]pyrimidin-4-yl]spiro[5,6-dihydrocyclopenta[b]thiophene-4,3′-azetidine]-3-carbonitrile] | 10 to 100 | 1000 to 10000 |  | 
CC1CC2(CN(c3nc(OCC4(CN5CCOCC5)CC4)nc(N4C[C@H]5CC[C@@H](C4)N5)c3C#N)C2)c2c1sc(N)c2C#N (stereo partly drawn) [Compound 45, 2-amino-1-[5-cyano-2-[[1-(morpholinomethyl)cyclopropyl]methoxy]-6-[(1R,5S)-3,8-diazabicyclo[3.2.1]octan-3-yl]pyrimidin-4-yl]-6-methyl-spiro[5,6-dihydrocyclopenta[b]thiophene-4,3′-azetidine]-3-carbonitrile] | 0.1 to 1 | 10 to 100 |  | 
N#Cc1cc2n(n1)CCCN(c1nc(OC[C@@]34CCCN3C[C@H](F)C4)nc(N3CC4(CCc5sc(N)c(C#N)c54)C3)c1C#N)C2 [Compound 24, 2-amino-1′-[5-cyano-6-(2-cyano-4,6,7,8-tetrahydropyrazolo[1,5-a][1,4]diazepin-5-yl)-2-[[(2R,8S)-2-fluoro-1,2,3,5,6,7-hexahydropyrrolizin-8-yl]methoxy]pyrimidin-4-yl]spiro[5,6-dihydrocyclopenta[b]thiophene-4,3′-azetidine]-3-carbonitrile] | 10 to 100 | 100 to 1000 |  | 
N#Cc1c(N)sc2c1C1(CC2)CN(c2nc(OC[C@@]34CCCN3C[C@H](F)C4)nc(N3CCC[C@]4(C3)NC(=O)NC4=O)c2F)C1 [Compound 7, 2-amino-1′-[6-[(5R)-2,4-dioxo-1,3,9-triazaspiro[4.5]decan-9-yl]-5-fluoro-2-[[(2R,8S)-2-fluoro-1,2,3,5,6,7-hexahydropyrrolizin-8-yl]methoxy]pyrimidin-4-yl]spiro[5,6-dihydrocyclopenta[b]thiophene-4,3′-azetidine]-3-carbonitrile] | 0.1 to 1 | 1000 to 10000 |  | 
CN(C)CC(F)(F)COc1nc(N2C[C@H]3CC[C@@H](C2)N3)c(C#N)c(N2CC3(CCc4sc(N)c(C#N)c43)C2)n1 [Compound 26, 2-amino-1′-[5-cyano-6-(3,8-diazabicyclo[3.2.1]octan-3-yl)-2-[3-(dimethylamino)-2,2-difluoro-propoxy]pyrimidin-4-yl]spiro[5,6-dihydrocyclopenta[b]thiophene-4,3′-azetidine]-3-carbonitrile] | 10 to 100 | 1000 to 10000 |  | 
N#Cc1c(N2C[C@H]3CC[C@@H](C2)N3)nc(OCC2(CN3CCOCC3)CC2)nc1N1CC2(CCc3sc(N)c(C#N)c32)C1 [Compound 4, 2-amino-1′-[5-cyano-2-[[1-(morpholinomethyl)cyclopropyl]methoxy]-6-[(1R,5S)-3,8-diazabicyclo[3.2.1]octan-3-yl]pyrimidin-4-yl]spiro[5,6-dihydrocyclopenta[b]thiophene-4,3′-azetidine]-3-carbonitrile] | < 0.1 | 1 to 10 |  | 
N#Cc1c(N2C[C@H]3COC[C@@H](C2)N3)nc(OCC2(CN3CCOCC3)CC2)nc1N1CC2(CCc3sc(N)c(C#N)c32)C1 [Compound 42, 2-amino-1′-[5-cyano-2-[[1-(morpholinomethyl)cyclopropyl]methoxy]-6-(3-oxa-7,9-diazabicyclo[3.3.1]nonan-7-yl)pyrimidin-4-yl]spiro[5,6-dihydrocyclopenta[b]thiophene-4,3′-azetidine]-3-carbonitrile] | 1 to 10 | 100 to 1000 |  | 
N#Cc1c(N2CCCCCC2)nc(OC[C@@]23CCCN2C[C@H](F)C3)nc1N1CC2(CCc3sc(N)c(C#N)c32)C1 [Compound 19, 2-amino-1′-[6-(azepan-1-yl)-5-cyano-2-[[(2R)-2-fluoro-1,2,3,5,6,7-hexahydropyrrolizin-8-yl]methoxy]pyrimidin-4-yl]spiro[5,6-dihydrocyclopenta[b]thiophene-4,3′-azetidine]-3-carbonitrile] | 1 to 10 | 1000 to 10000 |  | 
CS(=O)(=O)c1cc2n(n1)CCCN(c1nc(OC[C@@]34CCCN3C[C@H](F)C4)nc(N3CC4(CCc5sc(N)c(C#N)c54)C3)c1C#N)C2 [Compound 21, 2-amino-1′-[5-cyano-2-[[(2R,8S)-2-fluoro-1,2,3,5,6,7-hexahydropyrrolizin-8-yl]methoxy]-6-(2-methylsulfonyl-4,6,7,8-tetrahydropyrazolo[1,5-a][1,4]diazepin-5-yl)pyrimidin-4-yl]spiro[5,6-dihydrocyclopenta[b]thiophene-4,3′-azetidine]-3-carbonitrile] | 1 to 10 | 100 to 1000 |  | 
